Data reported in US4308256A, “Method of inducing analgesia” (American Home Products Corporation, priority 1980, dated 1981).

System: male Charles River rats
Experiment: D'Amour-Smith rat tail-flick procedure (radiant heat, 8 second cut-off), intraventricular injection
Assay type: in vivo
Procedure: Intraventricular cannulae, made of 27-gauge stainless steel tubing, are implanted in 300-400 g. male Charles River rats under pentobarbital anesthesia. After a recovery period of at least one week, the rats are restrained in a wire-mesh cylindrical chamber so that the tip of the tail can be positioned at the focal point of a radiant heat source. After an acclimatistation period of 5 minutes, the lamp is turned on and an electric clock activated. Movement of the tip of the tail exposes a photocell to the lamp, which turns off the thermal stimulus and stops the clock. If a rat fails to move its tail within 8 seconds, the heat is automatically turned off to prevent blistering. The intensity of the lamp is adjusted in each case to produce at least three baseline tail-flick latencies of 2.5-4.5 seconds. Tests are initially made every 2 minutes, then every 5 minutes and finally every 15 minutes.
Initially, using the above outlined procedure, the effects of intraventricularly administered leucine-enkephalin are tested in rats according to the above procedure.
The rat tail flick procedure is repeated, first by the simultaneous intraventricular injection of both leucine-enkephalin and bestatin and then by the initial injection of bestatin followed one hour later by the injection of leucine-enkephalin.
The above procedure is repeated again, however, the bestatin is administered first and then one hour later the leucine-enkephalin is administered.
The effects of bestatin alone are tested in rats according to the rat tail flick procedure.

SMILES: CC(C)C[C@H](NC(=O)[C@@H](O)[C@H](N)Cc1ccccc1)C(=O)O [bestatin, [(2S,3R)-3-amino-2-hydroxy-4-phenylbutanoyl]-L-leucine]
- Tail-flick latency (200 μg bestatin alone into lateral ventricle, Rat 1, 2 min): 4.92 s
- Tail-flick latency (200 μg bestatin alone into lateral ventricle, Rat 1, 4 min): 7.36 s
- Tail-flick latency (200 μg bestatin into lateral ventricle, 200 μg leucine-enkephalin one hour later, 1 rat, 2 min after leucine-enkephalin): 8.00 s
- Tail-flick latency (200 μg bestatin into lateral ventricle, 200 μg leucine-enkephalin one hour later, 1 rat, 4 min after leucine-enkephalin): 8.00 s
- Tail-flick latency (200 μg bestatin into lateral ventricle, 200 μg leucine-enkephalin one hour later, 1 rat, 6 min after leucine-enkephalin): 8.00 s
- Tail-flick latency (200 μg bestatin into lateral ventricle, 200 μg leucine-enkephalin one hour later, 1 rat, 8 min after leucine-enkephalin): 8.00 s
- Tail-flick latency (200 μg bestatin into lateral ventricle, 200 μg leucine-enkephalin one hour later, 1 rat, 10 min after leucine-enkephalin): 8.00 s
- Tail-flick latency (200 μg bestatin into lateral ventricle, 200 μg leucine-enkephalin one hour later, 1 rat, 12 min after leucine-enkephalin): 8.00 s
- Tail-flick latency (200 μg bestatin into lateral ventricle, 200 μg leucine-enkephalin one hour later, 1 rat, 14 min after leucine-enkephalin): 8.00 s
- Tail-flick latency (200 μg bestatin into lateral ventricle, 200 μg leucine-enkephalin one hour later, 1 rat, 19 min after leucine-enkephalin): 8.00 s
- Tail-flick latency (200 μg bestatin into lateral ventricle, 200 μg leucine-enkephalin one hour later, 1 rat, 24 min after leucine-enkephalin): 8.00 s
- Tail-flick latency (200 μg bestatin into lateral ventricle, 200 μg leucine-enkephalin one hour later, 1 rat, 29 min after leucine-enkephalin): 8.00 s
- Tail-flick latency (200 μg bestatin into lateral ventricle, 200 μg leucine-enkephalin one hour later, 1 rat, 34 min after leucine-enkephalin): 8.00 s
- Tail-flick latency (200 μg bestatin into lateral ventricle, 200 μg leucine-enkephalin one hour later, 1 rat, 53 min after leucine-enkephalin): 8.00 s
- Tail-flick latency (200 μg bestatin into lateral ventricle, 200 μg leucine-enkephalin one hour later, 1 rat, 58 min after leucine-enkephalin): 8.00 s
- Tail-flick latency (200 μg bestatin into lateral ventricle, 200 μg leucine-enkephalin one hour later, 1 rat, 63 min after leucine-enkephalin): 6.07 s
- Tail-flick latency (200 μg bestatin into lateral ventricle, 200 μg leucine-enkephalin one hour later, 1 rat, 68 min after leucine-enkephalin): 2.62 s
- Tail-flick latency (200 μg leucine-enkephalin + 200 μg bestatin injected together into lateral ventricle, 1 rat, 2 min): 4.21 s
- Tail-flick latency (200 μg leucine-enkephalin + 200 μg bestatin injected together into lateral ventricle, 1 rat, 4 min): 5.75 s
- Tail-flick latency (200 μg leucine-enkephalin + 200 μg bestatin injected together into lateral ventricle, 1 rat, 8 min): 8.00 s
- Tail-flick latency (200 μg leucine-enkephalin + 200 μg bestatin injected together into lateral ventricle, 1 rat, 10 min): 8.00 s
- Tail-flick latency (200 μg leucine-enkephalin + 200 μg bestatin injected together into lateral ventricle, 1 rat, 12 min): 8.00 s
- Tail-flick latency (200 μg leucine-enkephalin + 200 μg bestatin injected together into lateral ventricle, 1 rat, 14 min): 8.00 s
- Tail-flick latency (200 μg leucine-enkephalin + 200 μg bestatin injected together into lateral ventricle, 1 rat, 19 min): 8.00 s
- Tail-flick latency (200 μg leucine-enkephalin + 200 μg bestatin injected together into lateral ventricle, 1 rat, 24 min): 8.00 s
- Tail-flick latency (200 μg leucine-enkephalin + 200 μg bestatin injected together into lateral ventricle, 1 rat, 29 min): 8.00 s
- Tail-flick latency (200 μg leucine-enkephalin + 200 μg bestatin injected together into lateral ventricle, 1 rat, 34 min): 8.00 s
- Tail-flick latency (200 μg leucine-enkephalin + 200 μg bestatin injected together into lateral ventricle, 1 rat, 39 min): 8.00 s
- Tail-flick latency (200 μg leucine-enkephalin + 200 μg bestatin injected together into lateral ventricle, 1 rat, 53 min): 8.00 s
- Tail-flick latency (200 μg leucine-enkephalin + 200 μg bestatin injected together into lateral ventricle, 1 rat, 58 min): 8.00 s
- Tail-flick latency (200 μg leucine-enkephalin + 200 μg bestatin injected together into lateral ventricle, 1 rat, 63 min): 4.65 s
- Tail-flick latency (200 μg leucine-enkephalin + 200 μg bestatin injected together into lateral ventricle, 1 rat, 68 min): 8.00 s
- Tail-flick latency (200 μg leucine-enkephalin + 200 μg bestatin injected together into lateral ventricle, 1 rat, 73 min): 4.95 s
- Tail-flick latency (200 μg leucine-enkephalin + 200 μg bestatin injected together into lateral ventricle, 1 rat, 78 min): 2.10 s
- Analgesia induced by bestatin alone (200 μg level, lateral ventricle, rat): does not appear to induce any clearcut analgesia
- Tail-flick latency (400 μg bestatin alone into lateral ventricle, Rat 1, 210 min): 8.00 s
- Tail-flick latency (400 μg bestatin alone into lateral ventricle, Rat 1, 225 min): 8.00 s
- Tail-flick latency (400 μg bestatin alone into lateral ventricle, Rat 1, 240 min): 8.00 s
- Tail-flick latency (400 μg bestatin alone into lateral ventricle, Rat 1, 255 min): 4.71 s
- Tail-flick latency (400 μg bestatin alone into lateral ventricle, Rat 2, 2 min): 2.16 s
- Tail-flick latency (400 μg bestatin alone into lateral ventricle, Rat 2, 4 min): 5.40 s
- Tail-flick latency (400 μg bestatin alone into lateral ventricle, Rat 2, 6 min): 4.62 s
- Tail-flick latency (400 μg bestatin alone into lateral ventricle, Rat 2, 8 min): 6.51 s
- Tail-flick latency (400 μg bestatin alone into lateral ventricle, Rat 2, 10 min): 8.00 s
- Tail-flick latency (400 μg bestatin alone into lateral ventricle, Rat 2, 12 min): 8.00 s
- Tail-flick latency (400 μg bestatin alone into lateral ventricle, Rat 2, 14 min): 8.00 s
- Tail-flick latency (400 μg bestatin alone into lateral ventricle, Rat 2, 16 min): 8.00 s
- Tail-flick latency (400 μg bestatin alone into lateral ventricle, Rat 2, 18 min): 8.00 s
- Tail-flick latency (400 μg bestatin alone into lateral ventricle, Rat 2, 20 min): 8.00 s
- Tail-flick latency (400 μg bestatin alone into lateral ventricle, Rat 2, 22 min): 8.00 s
- Tail-flick latency (400 μg bestatin alone into lateral ventricle, Rat 2, 24 min): 8.00 s
- Tail-flick latency (400 μg bestatin alone into lateral ventricle, Rat 2, 26 min): 8.00 s
- Tail-flick latency (400 μg bestatin alone into lateral ventricle, Rat 2, 28 min): 8.00 s
